Assay type in all cases: cell-based
The subject of one assay is BHK-21 cells. The assay is described as follows: Anti-fibrosis activity test: inhibition of BHK-21 cell proliferation (CCK-8). The settings on record: Mesocricetus auratus, BHK-21, 48 h, CCK-8, 48 hours after administration. The gist of the method: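 Proliferation of BHK-21 cells is measured by CCK-8 at 450 nm following 48 h compound exposure at several concentrations. Inhibition is expressed relative to blank control and IC50 is computed from it.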

The test system of assay [1] is human lung fibroblasts HFL1. The experiment in a line: Anti-fibrosis activity test: inhibition of proliferation of human lung fibroblasts HFL1 (CCK-8). The settings on record: Homo sapiens, HFL1, 48 h, human lung fibroblasts HFL1, CCK-8, 48 hours. An outline of the steps:
(§1)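 A CCK-8 proliferation assay was run: cells at 2×10^4 cells/mL, adherent for 24 h, then incubated 48 h at 37° C with compound dilutions. A450 was recorded 2 h after CCK-8 addition and converted to percent inhibition versus blank for IC50 determination.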

Assay [2] deals with human hepatic stellate cells LX-2. The experiment in a line: Anti-fibrosis activity test: inhibition of proliferation of human hepatic stellate cells LX-2 (CCK-8). The settings on record: Homo sapiens, 48 h, human hepatic stellate cells LX-2, CCK-8, 48 hours. An outline of the steps: as §1
Assay [3] relates to human fibrosarcoma cells HT-1080. The assay is described as follows: Anti-fibrosis activity test: inhibition of proliferation of human fibrosarcoma cells HT-1080 (CCK-8). The settings on record: Homo sapiens, HT-1080, 48 h, human fibrosarcoma cells HT-1080, CCK-8, 48 hours. An outline of the steps:
as §1

In assay [4] the test system is human dermal fibroblasts CCC-ESF-1. The assay is described as follows: Anti-fibrosis activity test: inhibition of proliferation of human dermal fibroblasts CCC-ESF-1 (CCK-8). The settings on record: Fibroblast; human dermal fibroblasts CCC-ESF-1, CCK-8, 48 hours. The gist of the method: as §1
Assay [5] concerns human embryonic lung fibroblast IMR-90. The experiment in a line: Anti-fibrosis activity test: inhibition of proliferation of human embryonic lung fibroblast IMR-90 (CCK-8). The settings on record: human embryonic lung fibroblast IMR-90, CCK-8, 48 hours. The gist of the method: as §1
The test system of assay [6] is cardiac fibroblast RAT-iCell-C002. The assay is described as follows: Anti-fibrosis activity test: inhibition of proliferation of cardiac fibroblast RAT-iCell-C002 (CCK-8). The settings on record: Cardiac fibroblast, 48 h, cardiac fibroblast RAT-iCell-C002, CCK-8, 48 hours. An outline of the steps: as §1
In another assay the test system is NF-κB. The experiment in a line: Immunological activity test: inhibition of NF-κB activity. The settings on record: initial concentration of 30 μM; a/b isomers given as first/second symbol; read-out: IC50 (μM), inhibitory activity against NF-κB. The gist of the method:
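Single-point testing at 30 μM preceded IC50 determination.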

Assay [7] has as its system mouse macrophages (RAW264.7). The experiment in a line: Lipopolysaccharide-induced NO secretion in macrophages (Griess). The settings on record: Mus musculus, RAW264.7, 24 h, RAW264.7, LPS 1 μg/ml, a/b isomers given as first/second symbol, read-out: IC50 (μM), inhibition of lipopolysaccharide-induced NO secretion in macrophages. An outline of the steps:
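Absorbance at 548 nm after Griess reagent addition to culture supernatant gave NO content; inhibition rate was derived relative to blank control. Cells were mouse RAW264.7 macrophages exposed to compounds and 1 μg/ml LPS for 24 hours.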
(In general: Nitrite, measured by Griess reagent, commonly stands in for NO production.)

Data on 13 compounds can be found in patent publication US11040028B2, “Penicinotam derivative, preparation method and use thereof” (OCEAN UNIVERSITY OF CHINA, priority 2017, dated 2021).

As a reminder, the IC50 is the concentration needed to halve the response being measured. With `O=C1c2c(nc3ccccc3c2OCc2cccc(Cl)c2F)-c2cccn21` [Compound 582b, 9-((3-chloro-2-fluorobenzyl)oxy)-10H-pyrrolizino[1,2-b]quinolin-10-one], the IC50 (with BHK-21 cells; in assay [1]; in assay [2]; in assay [3]; in [4]; in assay [5]) was 0.05 to 5 mM each time. Further, the concentration for half-maximal inhibition (IC50) in assay [6] lay in the range of 0.05 to 5 mM; with NF-κB, 1 to 10 µM; in assay [7] it was 1 to 10 µM.

For the compound `O=C1c2c(n(Cc3cccc([N+](=O)[O-])c3)c3ccccc3c2=O)-c2cccn21` [Compound 583a, 4-(3-Nitrobenzyl)-9H-pyrrolizino[1,2-b]quinoline-9,10(4H)-dione], the IC50 (in the assay with BHK-21 cells; in assay [1]; in assay [2]; in assay [3]; in assay [4]; in assay [5]) was 0.05 to 5 mM in each case. In addition, the IC50 in assay [6] lay in the range of 0.05 to 5 mM; in the assay with NF-κB, 1 to 10 µM; in assay [7] it was 1 to 10 µM.

Take `O=C1c2c(nc3ccccc3c2OCc2cccc([N+](=O)[O-])c2)-c2cccn21` [Compound 583b, 9-((3-nitrobenzyl)oxy)-10H-pyrrolizino[1,2-b]quinolin-10-one]: the IC50 (in the assay on BHK-21 cells; in assay [1]; in [2]; in assay [3]; in assay [4]; in assay [5]) was 0.05 to 5 mM throughout. Besides, the IC50 in assay [6] is 0.05 to 5 mM; in the assay on NF-κB it was 1 to 10 µM; in assay [7], 1 to 10 µM.

Take `O=C1c2c(n(Cc3ccc(F)c(F)c3F)c3ccccc3c2=O)-c2cccn21` [Compound 584a, 4-(2,3,4-Trifluorobenzyl)-9H-pyrrolizino[1,2-b]quinoline-9,10(4H)-dione]: the IC50 in the assay with BHK-21 cells is less than 0.05 mM; in assay [1], 0.05 to 5 mM; in [2] it was 0.05 to 5 mM; in assay [3], less than 0.05 mM; in assay [4] it was 0.05 to 5 mM; in [5], 0.05 to 5 mM. In addition, the figures for the IC50 (in assay [6]; in the assay on NF-κB; in [7]) were 0.05 to 5 mM, 0.1 to 1 µM and 1 to 10 µM, respectively.

In the case of `O=C1c2c(nc3ccccc3c2OCc2ccc(F)c(F)c2F)-c2cccn21` [Compound 584b, 9-((2,3,4-trifluorobenzyl)oxy)-10H-pyrrolizino[1,2-b]quinolin-10-one], the IC50 is 0.05 to 5 mM in the assay with BHK-21 cells; 0.05 to 5 mM in [1]; 0.05 to 5 mM in [2]; less than 0.05 mM in [3]; 0.05 to 5 mM in [4]; 5 to 20 mM in assay [5]. Moreover, the results for the IC50 (in assay [6]; in the assay on NF-κB; in assay [7]) were 0.05 to 5 mM, 0.1 to 1 µM and 1 to 10 µM, respectively.

For the compound `O=C1c2c(nc3ccccc3c2OCc2cc(F)c(F)cc2F)-c2cccn21` [Compound 585b, 9-((2,4,5-trifluorobenzyl)oxy)-10H-pyrrolizino[1,2-b]quinolin-10-one], the IC50 (in the assay with BHK-21 cells; in assay [1]; in assay [2]; in assay [3]; in assay [4]; in assay [5]) was 0.05 to 5 mM in each case. Moreover, the IC50 lay in the range of 0.05 to 5 mM in assay [6], 1 to 10 µM in the assay with NF-κB and 1 to 10 µM in assay [7].

Take `O=C1c2c(n(Cc3c(F)c(F)c(F)c(F)c3F)c3ccccc3c2=O)-c2cccn21` [Compound 586a, 4-((Perfluorophenyl)methyl)-9H-pyrrolizino[1,2-b]quinoline-9,10(4H)-dione]: the IC50 (in the assay with BHK-21 cells; in assay [1]; in [2]; in assay [3]; in assay [4]; in [5]) was 0.05 to 5 mM in each case. Further, the IC50 fell in the range of 0.05 to 5 mM in assay [6], 1 to 10 µM with NF-κB and 0.1 to 1 µM in [7].

`O=C1c2c(nc3ccccc3c2OCc2c(F)c(F)c(F)c(F)c2F)-c2cccn21` [Compound 586b, 9-((perfluorophenyl)methoxy)-10H-pyrrolizino[1,2-b]quinolin-10-one]: the IC50 (in the assay on BHK-21 cells; in [1]; in assay [2]; in assay [3]; in [4]; in assay [5]) was 0.05 to 5 mM each time. Further, the IC50 in assay [6] fell in the range of 0.05 to 5 mM; in the assay with NF-κB, 1 to 10 µM; in assay [7], 1 to 10 µM.

Regarding `O=C1c2c(n(Cc3cc(F)c(F)c(F)c3F)c3ccccc3c2=O)-c2cccn21` [Compound 587a, 4-(2,3,4,5-Tetrafluorobenzyl)-9H-pyrrolizino[1,2-b]quinoline-9,10(4H)-dione], the IC50 (in the assay with BHK-21 cells; in assay [1]; in [2]; in assay [3]; in [4]; in assay [5]) was 0.05 to 5 mM in each case. Moreover, the IC50 in assay [6] was in the range of 0.05 to 5 mM; with NF-κB it was 1 to 10 µM; in assay [7], 1 to 10 µM.

As for `O=C1c2c(nc3ccccc3c2OCc2cc(F)c(F)c(F)c2F)-c2cccn21` [Compound 587b, 9-((2,3,4,5-tetrafluorobenzyl)oxy)-10H-pyrrolizino[1,2-b]quinolin-10-one], the IC50 (with BHK-21 cells; in assay [1]; in assay [2]; in [3]; in [4]; in assay [5]) was 0.05 to 5 mM in each case. The values for the half-inhibitory concentration (IC50) (in assay [6]; with NF-κB; in [7]) were 0.05 to 5 mM, 1 to 10 µM and 1 to 10 µM, respectively.

For the compound `O=C1c2c(n(Cc3ccc(F)cc3)c3ccccc3c2=O)-c2cccn21` [Compound 588a, 4-(4-Fluorobenzyl)-9H-pyrrolizino[1,2-b]quinoline-9,10(4H)-dione], the IC50 (in the assay on BHK-21 cells; in assay [1]; in assay [2]; in [3]; in [4]; in assay [5]) was 0.05 to 5 mM in each case. The IC50 in [6] was in the range of 0.05 to 5 mM; with NF-κB it was 1 to 10 µM; in [7] it was 1 to 10 µM.

With `O=C1c2c(nc3ccccc3c2OCc2ccc(F)cc2)-c2cccn21` [Compound 588b, 9-((4-fluorobenzyl)oxy)-10H-pyrrolizino[1,2-b]quinolin-10-one], the IC50 (in the assay with BHK-21 cells; in assay [1]; in assay [2]; in assay [3]; in assay [4]; in assay [5]) was 0.05 to 5 mM throughout. Moreover, the IC50 in assay [6] is 0.05 to 5 mM; with NF-κB, 1 to 10 µM; in assay [7] it was 1 to 10 µM.

Take `O=C1c2c(n(Cc3ccc(Cl)cc3)c3ccccc3c2=O)-c2cccn21` [Compound 589a, 4-(4-Chlorobenzyl)-9H-pyrrolizino[1,2-b]quinoline-9,10(4H)-dione]: the IC50 is less than 0.05 mM in the assay on BHK-21 cells; 0.05 to 5 mM in assay [1]; less than 0.05 mM in assay [2]; 0.05 to 5 mM in assay [3]; 0.05 to 5 mM in assay [4]; 0.05 to 5 mM in [5]. For the same compound, the figures for the IC50 (in assay [6]; with NF-κB; in assay [7]) were 0.05 to 5 mM, 1 to 10 µM and 1 to 10 µM, respectively.
